This assay addresses T1, MET kinase (Homo sapiens, UniProt P08581).
T1 construct: expressing the kinase domain of human Met; 6x Histidine tag (cleaved yes); made in house; host or cells: Sf9 insect cells
As to the kind of experiment: MET Luminescence-Based ATP Depletion Enzyme Assay. Format: biochemical. To be noted: 10 μM ATP. The procedure:
MET Luminescence-Based ATP Depletion Enzyme Assay
Materials: Poly Glu-Tyr (4:1) substrate (Sigma Cat#P-0275), ATP (Sigma Cat#A-3377, FW=551), HEPES buffer, pH 7.5, Bovine serum albumin (BSA) (Roche 92423420), MgCl2, Staurosporine (Streptomyces sp. Sigma Cat#85660-1MG), white Costar 384-well flat-bottom plate (VWR Cat#29444-088). MET kinase (see below), Kinase-Glo™ (Promega Cat#V6712).
Stock Solutions: 10 mg/ml poly Glu-Tyr in water, stored at −20° C.; 100 mM HEPES buffer, pH 7.5 (5 ml 1M stock+45 ml miliQH2O); 10 mM ATP (5.51 mg/ml in dH2O) stored at −20° C. (diluted 50 μl into total of 10 ml miliQH2O daily=50 μM ATP working stock); 1% BSA (1 g BSA in 100 ml 0.1M HEPES, pH 7.5, stored at −20° C.), 100 mM MgCl2; 200 μM Staurosporine, 2× Kinase-Glo™ reagent (made fresh or stored at −20° C.).
Standard Assay Setup for 384-well format (20 μl kinase reaction, 40 μl detection reaction): 10 mM MgCl2; 0.3 mg/ml poly Glu-Tyr; 0.1% BSA; 1 μl test compound (in DMSO); 0.4 μg/ml MET kinase; 10 μM ATP; 100 mM HEPES buffer. Positive controls contained DMSO with no test compound. Negative controls contained 10 μM staurosporine. The kinase reactions were initiated at time t=0 by the addition of ATP. Kinase reactions were incubated at 21° C. for 60 min, then 20 μl of Kinase-Glo™ reagent were added to each well to quench the kinase reaction and initiate the luminescence reaction. After a 20 min incubation at 21° C., the luminescence was detected in a plate-reading luminometer.
The cell pellets produced from half of a 12 L Sf9 insect cell culture expressing the kinase domain of human Met were resuspended in a buffer containing 50 mM Tris-HCl pH 7.7 and 250 mM NaCl, in a volume of approximately 40 ml per 1 L of original culture. One tablet of Roche Complete, EDTA-free protease inhibitor cocktail (Cat#1873580) was added per 1 L of original culture. The suspension was stirred for 1 hour at 4° C. Debris was removed by centrifugation for 30 minutes at 39,800×g at 4° C. The supernatant was decanted into a 500 ml beaker and 10 ml of 50% slurry of Qiagen Ni-NTA Agarose (Cat#30250) that had been pre-equilibrated in 50 mM Tris-HCl pH 7.8, 50 mM NaCl, 10% Glycerol, 10 mM Imidazole, and 10 mM Methionine, were added and stirred for 30 minutes at 4° C. The sample was then poured into a drip column at 4° C. and washed with 10 column volumes of 50 mM Tris-HCl pH 7.8, 500 mM NaCl, 10% Glycerol, 10 mM Imidazole, and 10 mM Methionine. The protein was eluted using a step gradient with two column volumes each of the same buffer containing 50 mM, 200 mM, and 500 mM Imidazole, sequentially. The 6× Histidine tag was cleaved overnight using 40 units of TEV protease (Invitrogen Cat#10127017) per 1 mg of protein while dialyzing in 50 mM Tris-HCl pH 7.8, 500 mM NaCl, 10% Glycerol, 10 mM Imidazole, and 10 mM Methionine at 4° C. The 6× Histidine tag was removed by passing the sample over a Pharmacia 5 ml IMAC column (Cat#17-0409-01) charged with Nickel and equilibrated in 50 mM Tris-HCl pH 7.8, 500 mM NaCl, 10% Glycerol, 10 mM Imidazole, and 10 mM Methionine. The cleaved protein bound to the Nickel column at a low affinity and was eluted with a step gradient. The step gradient was run with 15% and then 80% of the B-side (A-side=50 mM Tris-HCl pH 7.8, 500 mM NaCl, 10% Glycerol, 10 mM Imidazole, and 10 mM Methionine; B-side=50 mM Tris-HCl pH 7.8, 500 mM NaCl, 10% Glycerol, 500 mM Imidazole, and 10 mM Methionine) for 4 column volumes each. The Met protein eluted in the first step (15%), whereas the non-cleaved Met and the cleaved Histidine tag eluted in the 80% fractions. The 15% fractions were pooled after SDS-PAGE gel analysis confirmed the presence of cleaved Met; further purification was done by gel filtration chromatography on an Amersham Biosciences HiLoad 16/60 Superdex 200 prep grade (Cat#17-1069-01) equilibrated in 50 mM Tris-HCl pH 8.5, 150 mM NaCl, 10% Glycerol and 5 mM DTT. […]

Each structure is given as a SMILES string.

T1 sequence (P08581 1078-1345 limits assumed): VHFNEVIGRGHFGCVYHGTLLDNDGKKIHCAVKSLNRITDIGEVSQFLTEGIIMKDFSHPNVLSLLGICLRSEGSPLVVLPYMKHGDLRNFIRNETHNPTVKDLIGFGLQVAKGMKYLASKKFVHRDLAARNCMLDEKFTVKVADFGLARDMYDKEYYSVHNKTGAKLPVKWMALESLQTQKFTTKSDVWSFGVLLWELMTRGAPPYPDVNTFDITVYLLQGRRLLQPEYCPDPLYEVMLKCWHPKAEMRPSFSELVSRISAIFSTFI

One may read the IC50 as the concentration that gives 50% inhibition. Low readings indicate higher potency, high ones lower potency. For the compound `COc1ccc(Nc2nccc(-c3ccc(Br)s3)n2)cc1C(=O)N(C)C`, the IC50 is 1 to 5 µM. Take `CCC(=O)Nc1ccc(-c2ccnc(Nc3cccc(C)c3)n2)s1`: the half-maximal inhibitory concentration (IC50) is 1 to 5 µM. `CCC1CCCCN1S(=O)(=O)c1ccc(-c2ccnc(Nc3cccc(C(C)O)c3)n2)s1` (stereo not shown) came in with a 50% inhibitory concentration (IC50) below 1 µM.

The compound `CN(C)C(=O)c1cccc(Nc2nccc(-c3ccc(Br)s3)n2)c1` yielded an IC50 of 1 to 5 µM.

`CC(O)c1cccc(Nc2nccc(-c3ccc(S(=O)(=O)N(C)C)s3)n2)c1` (stereo not shown) yielded a half-inhibitory concentration (IC50) of 1 to 5 µM. In the case of `CCN(CCC#N)S(=O)(=O)c1ccc(-c2ccnc(Nc3cccc(C(C)O)c3)n2)s1` (stereo not shown), the IC50 is below 1 µM. In turn, `CC(O)c1cccc(Nc2nccc(-c3ccc(-c4cccnc4)s3)n2)c1` (stereo not shown) registered an IC50 of 1 to 5 µM. Next, `C[C@@H](NC(=O)c1ccc(-c2ccnc(Nc3cccc(CN4CCN(CCO)CC4)c3)n2)s1)c1ccccc1`: below 1 µM; `Brc1ccc(-c2ccnc(Nc3cccc(CN4CCOCC4)c3)n2)s1`: 1 to 5 µM.

In the case of `OC1CCN(Cc2cccc(Nc3nccc(-c4ccc(CNc5ccccc5Cl)s4)n3)c2)CC1`, the concentration for half-maximal inhibition (IC50) was 1 to 5 µM. With `O=C(c1cccc(Nc2nccc(-c3ccc(Br)s3)n2)c1)N1CCN(CCO)CC1` the figure was 1 to 5 µM; with `CCN(CCC#N)S(=O)(=O)c1ccc(-c2ccnc(Nc3cccc(C)c3)n2)s1`, below 1 µM; with `O=C(NCc1ccccc1)c1ccc(-c2ccnc(Nc3ccc(CCO)cc3)n2)s1`, 1 to 5 µM. Next, `COc1ccc(Nc2nccc(-c3ccc(Br)s3)n2)cc1OC`: 1 to 5 µM. Next, `CC(O)c1cccc(Nc2nccc(-c3ccc(S(=O)(=O)Cc4ccccc4)s3)n2)c1` (stereo not shown): below 1 µM; `C[C@@H](NC(=O)c1ccc(-c2ccnc(Nc3cccc(CN4CCC(O)CC4)c3)n2)s1)c1ccccc1`: below 1 µM.

Values taken from US7977481B2, “Pyrimidinyl-thiophene kinase modulators” (SGX Pharmaceuticals, Inc., priority 2005, dated 2011).
